The target in the experiment is T1, RORγt (Homo sapiens, UniProt P51449).
T1 construct: […]
T1 sequence (P51449 269-508 limits assumed): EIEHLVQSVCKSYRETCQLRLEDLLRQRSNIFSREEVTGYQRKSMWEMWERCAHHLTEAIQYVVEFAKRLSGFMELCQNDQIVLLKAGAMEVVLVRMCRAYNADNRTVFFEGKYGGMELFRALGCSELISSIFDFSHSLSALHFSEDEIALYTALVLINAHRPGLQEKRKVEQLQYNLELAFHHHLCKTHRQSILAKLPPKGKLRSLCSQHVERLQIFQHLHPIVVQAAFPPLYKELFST
The experiment is described as follows: Fluorescence resonance energy transfer (FRET) test, inhibitory activity of RORγt. In kind it is biochemical. As to conditions: FRET, B-RORγt LBD / Biotin-SRC1; read-out: IC50.

What is called IC50 is the concentration at which inhibition is half-maximal.

In the case of `CCS(=O)(=O)c1ccc([C@H](CC#N)NC(=O)c2ccc(N3C[C@@H](Oc4ccc(-n5cccn5)cc4)C[C@H]3COC(F)F)cc2)cc1` [Example 152, 4-((2S,4S)-4-(4-(1H-pyrazol-1-yl)phenoxy)-2-((difluoromethoxy)methyl)pyrrolidin-1-yl)-N—((S)-2-cyano-1-(4-(ethylsulfonyl)phenyl)ethyl)benzamide], the concentration for half-maximal inhibition (IC50) was determined as 13.2 nM. As to `CCS(=O)(=O)c1ccc([C@H](CC(=O)NO)NC(=O)c2ccc(N3C[C@@H](Oc4ccc(C(F)(F)F)cc4)C[C@H]3COC(F)F)cc2)cc1` [Example 93], the IC50 was 13 nM. For the compound `CCS(=O)(=O)c1ccc([C@H](COC(N)=O)NC(=O)c2ccc(N3C[C@@H](Oc4ccc(OC(F)(F)F)cn4)C[C@H]3CF)nc2)cc1` [Example 176, (R)-2-(4-(Ethylsulfonyl)phenyl)-2-(6-((2S,4S)-2-(fluoromethyl)-4-((5-(trifluoromethoxy)pyridin-2-yl)oxy)pyrrolidin-1-yl)nicotinamido)ethyl carbamate], the IC50 was found to be 7.3 nM. The figure for `CCS(=O)(=O)c1ccc([C@H](CC#N)NC(=O)c2ccc(N3C[C@@H](OC4CCC(C(F)(F)F)CC4)C[C@H]3COC(F)F)cc2)cc1` (stereo partly drawn) [Example 89, N—((S)-2-cyano-1-(4-(ethylsulfonyl)phenyl)ethyl)-4-((2S)-2-((difluoromethoxy)methyl)-4-((4-(trifluoromethyl)cyclohexyl)oxy)pyrrolidin-1-yl)benzamide] is 14 nM; for `CCS(=O)(=O)c1ccc([C@H](CC#N)NC(=O)c2ccc(N3C[C@@H](Oc4ccc(C(F)(F)F)cc4)C[C@H]3COC(F)F)c(Cl)c2)cc1` [Example 66, 3-chloro-N-((S)-2-cyano-1-(4-(ethylsulfonyl)phenyl)ethyl)-4-((2S,4S)-2-((difluoromethoxy)methyl)-4-(4-(trifluoromethyl)phenoxy)pyrrolidin-1-yl)benzamide] it is 33 nM; for `CCS(=O)(=O)c1ccc([C@H](CC(=O)NCC(=O)O)NC(=O)c2ccc(N3C[C@@H](Oc4ccc(C(F)(F)F)cc4)C[C@H]3COC(F)F)cc2)cc1` [Example 100, 2-((S)-3-(4-((2S,4S)-2-((difluoromethoxy)methyl)-4-(4-(trifluoromethyl)phenoxy)pyrrolidin-1-)benzoylamino)-3-(4-(ethylsulfonyl)phenyl)propionamido)acetic Acid] it is 14 nM. With `CCS(=O)(=O)c1ccc([C@H](CC#N)NC(=O)c2ccc(N3C[C@@H](Oc4ccc(C5CC5)cn4)C[C@H]3COC(F)F)cc2)cc1` [Example 40, N—((S)-2-cyano-1-(4-(ethylsulfonyl)phenyl)ethyl)-4-((2S,4S)-4-((5-cyclopropylpyridin-2-yl)oxy)-2-((difluoromethoxy)methyl)pyrrolidin-1-yl)benzamide], the IC50 came out at 21 nM. With `CCS(=O)(=O)c1ccc([C@H](CC(=O)O)NC(=O)c2ccc(N3C[C@@H](Oc4ccc(-n5cccn5)cn4)C[C@H]3COC(F)F)cc2)cc1` [Example 172, (S)-3-(4-((2S,4S)-4-((5-(1H-pyrazol-1-yl)pyridine-2-yl)oxy)-2-((difluoromethoxy)methyl)pyrrolidin-1-yl)benzamido)-3-(4-(ethylsulfonyl)phenyl)propionic Acid] the figure was 23.5 nM; with `CCS(=O)(=O)c1ccc([C@H](CC#N)NC(=O)c2ccc(N3C[C@@H](Oc4ccc(-n5cccn5)cn4)C[C@H]3COC(F)F)cc2)cc1` [Example 158], 7.4 nM. With `CCS(=O)(=O)c1ccc([C@H](CC(=O)OC)NC(=O)c2ccc(N3C[C@@H](Oc4ccc(C(F)(F)F)cc4)C[C@H]3COC(F)F)cc2)cc1` [Example 97, methyl (S)-3-(4-((2S,4S)-2-((difluoromethoxy)methyl)-4-(4-(trifluoromethyl)phenoxy)pyrrolidin-1-yl)benzoylamino)-3-(4-(ethylsulfonyl)phenyl)propionate] the figure was 21 nM; with `CCS(=O)(=O)c1ccc([C@H](COCC(=O)O)NC(=O)c2ccc(N3C[C@@H](Oc4ccc(C(F)(F)F)cc4)C[C@H]3COC(F)F)cc2)cc1` [Example 90, 2-((R)-2-(4-((2S,4S)-2-((difluoromethoxy)methyl)-4-(4-(trifluoromethyl)phenoxy)pyrrolidin-1-yl)benzoylamino)-2-(4-(ethylsulfonyl)phenyl)ethoxy)acetic Acid], 9 nM; with `CCS(=O)(=O)c1ccc([C@H](CNC=O)NC(=O)c2ccc(N3C[C@@H](Oc4ccc(C(F)(F)F)cc4)C[C@H]3COC(F)F)cc2)cc1` [Example 148], 15.2 nM. Take `CCS(=O)(=O)c1ccc([C@H](CC#N)NC(=O)c2ccc(N3CC(Oc4ccc(C(F)(F)F)cc4)C[C@H]3COC(F)F)c(OC)c2)cc1` (stereo in doubt) [Example 60, N-((S)-2-cyano-1-(4-(ethylsulfonyl)phenyl)ethyl)-4-((2S,4S)-2-((difluoromethoxy)methyl)-4-(4-(trifluoromethyl)phenoxy)pyrrolidin-1-yl)-3-methoxybenzamide]: the IC50 was found to be 81 nM. The figure for `CCS(=O)(=O)c1ccc([C@H](CC#N)NC(=O)c2ccc(N3C[C@@H](Oc4ccc(C(N)=O)cc4)C[C@H]3COC(F)F)cc2)cc1` [Example 25, 4-((2S,4S)-4-(4-carbamoylphenoxy)-2-((difluoromethoxy)methyl)pyrrolidin-1-yl)-N-((S)-2-cyano-1-(4-(ethylsulfonyl)phenyl)ethyl)benzamide] is 66 nM; for `CCS(=O)(=O)c1ccc([C@H](CC#N)NC(=O)c2ccc(N3C[C@@H](Oc4ccc(Cl)cn4)C[C@H]3COC(F)F)cc2)cc1` [Example 160, 4-((2S,4S)-4-((5-chloropyridin-2-yl)oxy)-2-((difluoromethoxy)methyl)pyrrolidin-1-yl)-N—((S)-2-cyano-1-(4-(ethylsulfonyl)phenyl)ethyl)benzamide] it is 5.6 nM.

As to `CCS(=O)(=O)c1ccc([C@H](CCC(=O)O)NC(=O)c2ccc(N3C[C@@H](Oc4ccc(C(F)(F)F)cc4)C[C@H]3COC(F)F)cc2)cc1` [Example 105, (S)-4-(4-((2S,4S)-2-((difluoromethoxy)methyl)-4-(4-(trifluoromethyl)phenoxy)pyrrolidin-1-yl)benzoylamino)-4-(4-(ethylsulfonyl)phenyl)butyric Acid], the IC50 stood at 7 nM.

Regarding `CCS(=O)(=O)c1ccc([C@H](CC#N)NC(=O)c2ccc(N3C[C@@H](Oc4ccc(Cl)cc4)C[C@H]3COC(F)F)cc2)cc1` [Example 21, 4-((2S)-4-(4-chlorophenoxy)-2-((difluoromethoxy)methyl)pyrrolidin-1-yl)-N-((S)-2-cyano-1-(4-(ethylsulfonyl)phenyl)ethyl)benzamide], the half-maximal inhibitory concentration (IC50) turned out to be 2 nM. The figure for `CCS(=O)(=O)c1ccc([C@H](CN(C)C)NC(=O)c2ccc(N3C[C@@H](Oc4ccc(C(F)(F)F)cc4)C[C@H]3COC(F)F)cc2)cc1` [Example 103] is 60 nM; for `CCS(=O)(=O)c1ccc([C@H](CC#N)NC(=O)c2ccc(N3CC(Oc4ccc(C(F)(F)F)cc4)C[C@H]3COC(F)F)cc2F)cc1` (stereo in doubt) [Example 59, N-((S)-2-cyano-1-(4-(ethylsulfonyl)phenyl)ethyl)-4-((2S,4S)-2-((difluoromethoxy)methyl)-4-(4-(trifluoromethyl)phenoxy)pyrrolidin-1-yl)-2-fluorobenzamide] it is 47 nM; for `CCS(=O)(=O)c1ccc([C@H](COC(N)=O)NC(=O)c2ccc(N3C[C@@H](Oc4ccc(OC(F)(F)F)cn4)C[C@H]3COC(F)F)cc2)cc1` [Example 156, (R)-2-(4-((2S,4S)-2-((difluoromethoxy)methyl)-4-((5-(trifluoromethoxy)pyridin-2-yl)oxy)pyrrolidin-1-yl)benzoylamino)-2-(4-(ethylsulfonyl)phenyl)ethyl carbamate] it is 3.1 nM. The figure for `CCS(=O)(=O)c1ccc([C@H](CC#N)NC(=O)c2ccc(N3C[C@@H](Oc4ccc(OC(F)(F)F)cn4)C[C@H]3COC(F)F)cc2)cc1` [Example 8, N-((S)-2-cyano-1-(4-(ethylsulfonyl)phenyl)ethyl)-4-((2S,4S)-2-((difluoromethoxy)methyl)-4-((5-(trifluoromethoxy)pyridin-2-yl)oxy)pyrrolidin-1-yl)benzamide] is 18.8 nM; for `CCS(=O)(=O)c1ccc([C@H](CC#N)NC(=O)c2cnc(N3CC(Oc4ccc(C(F)(F)F)cc4)C[C@H]3COC(F)F)c(F)c2)cc1` (stereo in doubt) [Example 50, N-((S)-2-cyano-1-(4-(ethylsulfonyl)phenyl)ethyl)-6-((2S,4S)-2-((difluoromethoxy)methyl)-4-(4-(trifluoromethyl)phenoxy)pyrrolidin-1-yl)-5-fluoronicotinamide] it is 16 nM. With `CCS(=O)(=O)c1ccc([C@H](CC(=O)OC)NC(=O)c2ccc(N3C[C@@H](Oc4ccc(C(F)(F)F)cc4)C[C@H]3COC(F)(F)F)cc2)cc1` [Example 96, methyl (S)-3-(4-(ethylsulfonyl)phenyl)-3-(4-((2S,4S)-2-((trifluoromethoxy)methyl)-4-(4-(trifluoromethyl)phenoxy)pyrrolidin-1-yl)benzamido)propionate], the IC50 was 31 nM. The figure for `CCS(=O)(=O)c1ccc([C@H](CC#N)NC(=O)c2ccc(N3C[C@@H](Oc4ccc(-n5ccc(F)n5)cc4)C[C@H]3COC(F)F)cc2)cc1` [Example 162, N—((S)-2-cyano-1-(4-(ethylsulfonyl)phenyl)ethyl)-4-((2S,4S)-2-((difluoromethoxy)methyl)-4-(4-(3-fluoro-1H-pyrazol-1-yl)phenoxy)pyrrolidin-1-yl)benzamide] is 9.9 nM. The figure for `CCS(=O)(=O)c1ccc([C@H](CC(=O)NCC(=O)OC)NC(=O)c2ccc(N3C[C@@H](Oc4ccc(C(F)(F)F)cc4)C[C@H]3COC(F)F)cc2)cc1` [Example 99, methyl 2-((S)-3-(4-((2S,4S)-2-((difluoromethoxy)methyl)-4-(4-(trifluoromethyl)phenoxy)pyrrolidin-1-yl)benzoylamino)-3-(4-(ethylsulfonyl)phenyl)propionamido)acetate] is 25 nM.

Source of the values: patent US20230121086A1, “RORgT INHIBITOR, PREPARATION METHOD THEREOF AND USE THEREOF” (SUNSHINE LAKE PHARMA CO., LTD., priority 2020, published 2023).
